Test results as given in ChEMBL document CHEMBL2040728, “New substituted 4H-chromenes as anticancer agents” (Bioorg Med Chem Lett, 2012).
The source made the active and inactive calls. The rule behind the calls is not given here.

Tests used:
LNCaP = assay: Antiproliferative activity against human LNCAP cells after 96 hrs by SRB assay; format: functional, cell-based
[1] = Antiproliferative activity against human paclitaxel-resistant PC3-TxR cells after 96 hrs by SRB assay; format: functional, cell-based
PC-3 = assay: Antiproliferative activity against human PC3 cells after 96 hrs by SRB assay; format: functional, cell-based; conditions: PC-3, 96 h
[2] = Antiproliferative activity against human WM164 cells after 48 hrs by SRB assay; format: functional, cell-based; conditions: WM164, 48 h
A-375 = assay: Antiproliferative activity against human A375 cells after 48 hrs by SRB assay; format: functional, cell-based; conditions: A-375, 48 h
T98G = assay: Antiproliferative activity against human T98G cells after 5 days by MTT assay; format: functional, cell-based; conditions: 120 h
[3] = Antiproliferative activity against human U87 cells after 5 days by MTT assay; format: functional, cell-based, U-87MG ATCC; conditions: U-87 MG, 120 h
[4] = Antiproliferative activity against human LN18 cells after 5 days by MTT assay; format: functional, cell-based; conditions: LN-18, 120 h
[5] = Antiproliferative activity against human A172 cells after 5 days by MTT assay; format: functional, cell-based; conditions: A 172, 120 h
[6] = Cytotoxicity against mouse primary astrocytes after 5 days by MTT assay; format: cell-based; conditions: Astrocyte, 120 h
Bos taurus [7] = species: Bos taurus; assay: Inhibition of bovine brain tubulin polymerization at 5 uM after 20 mins by spectrophotometric analysis relative to control
Bos taurus [8] = species: Bos taurus; assay: Inhibition of bovine brain tubulin polymerization after 20 mins by spectrophotometric analysis
Bos taurus [9] = species: Bos taurus; assay: Inhibition of bovine brain tubulin polymerization at 10 uM after 20 mins by spectrophotometric analysis
Bos taurus [10] = species: Bos taurus; assay: Inhibition of bovine brain tubulin polymerization at 20 uM after 20 mins by spectrophotometric analysis

Compound | IC50 (LNCaP) [µM] | IC50 [1] [µM] | IC50 (PC-3) [µM] | IC50 [2] [µM] | IC50 (A-375) [µM] | IC50 (T98G) [µM] | IC50 [3] [µM] | IC50 [4] [µM] | IC50 [5] [µM] | IC50 [6] [µM] | inhibition (Bos taurus [7]) | inhibition (Bos taurus [8]) | inhibition (Bos taurus [9]) [%] | inhibition (Bos taurus [10]) [%]
COc1ccc(C2C(C#N)=C(N)Oc3cc(N(C)C)ccc32)c2ccccc12 (centres undefined) | 0.76 | 0.53 | 0.43 | 0.49 | 0.44 |  |  |  |  |  |  |  |  | 
Cn1nnc2c(C(N)=O)ncn2c1=O [TEMOZOLOMIDE] |  |  |  |  |  | 570 | 49 | 390 | 65 | > 1000 |  |  |  | 
CC(=O)O[C@H]1C(=O)[C@@]2(C)[C@H]([C@H](OC(=O)c3ccccc3)[C@]3(O)C[C@H](OC(=O)[C@H](O)[C@@H](NC(=O)c4ccccc4)c4ccccc4)C(C)=C1C3(C)C)[C@]1(OC(C)=O)CO[C@@H]1C[C@@H]2O |  |  |  |  |  |  |  |  |  |  | inactive |  |  | 
CN(C)c1ccc2c(c1)OC(N)=C(C#N)C2c1ccc(N(C)C)c2ccccc12 (centres undefined) | 0.14 | 0.23 | 0.22 | 0.16 | 0.08 | 0.0125 | 0.0206 | 0.0133 | 0.0074 | 2.03 |  | Dose-dependent effect | 29 | 68
